Measured values: patent US4883666A, “Controlled drug delivery system for treatment of neural disorders” (Massachusetts Institute of Technology, priority 1987, dated 1989)
Where two headings read alike, the source gives them in different places.

Assays:
[1] = test system: Parkinson's disease; conditions: systemic application; cited from earlier work
[2] = test system: Parkinsonian patients; conditions: three patients; continuous i.v. infusion replacing oral levodopa; cited from earlier work
[3] = From the text: Ethylene vinyl acetate slabs containing 0%, 30%, 40% and 50% dopamine by weight formed by solvent casting as previously described were punched out to form round discs, approximately 3.0 mm in diameter. These discs were then coated by an additional layer of ethylene vinyl acetate either (i) completely; (ii) completely except for one concave pinhole present on one surface (iii) completely except for two concave pinholes present, one on each surface; (iv) partially, with one surface coated and the other not coated; or (v) not coated at all.
The release of dopamine into 5 ml of a 150 mM NaCI, 0.2% EDTA solution was monitored by measuring the absorbance at 280 nm of the solution at various time points and by comparison to a linear standard curve comparing absorbance at 280 nm to concentration of dopamine in the same buffered solution. The results are portrayed as either the absolute mass released over the time course of 65 days or as the amount of dopamine released as a fraction of the total amount present in the pellet.
Samples of these solutions were injected into High Pressure Liquid Chromatography system designed to measure absolute quantities of dopamine and to distinguish dopamine from its oxidation products or other metabolites.

[4] = Intracerebral dialysis: extracellular fluid dopamine levels in the striatum after implantation of dopamine containing EVA pellets
Procedure: Male Sprague-Dawley Ras (150-200 g) were anaesthetized with pentobarbitone (60 mg/kg) and placed in a David Kopf stereotaxic frame. The skull was exposed and a 4 mm diameter hole drilled centered at coordinates A +0.4 mm and R 2.6 mm using the Paxinos and Watson coordinates. The right cortex was aspirated using a mild vacuum down to the striatal surface (ventral - 3 mm). Pellets were implanted with the uncoated pore, when present, facing ventrally and imbedded in the body of the striatum. Both control, non-dopamine containing pellets, and dopamine containing (2 mg) pellets were implanted. In vivo release was measured on the third, twentieth and sixty-fifth days. Intracerebral Dialysis Method:
Rats were anaesthetized with pentobarbitone (60 mg/kg) and placed in the Kopf stereotaxic frame. The skull was exposed and a Carnegie Medicin dialysis probe (4 mm membrane length, 0.5 mm o.d., 5,000 m.w. cut off) implanted into the striatum at Paxinos and Watson coordinates A +2.1, R (or L) 1.9, V -7 mm. Probes were perfused with an artificial CSF medium, 1 mM Ca, pH 7.35, at a flow rate of 1.5 microliter/min using a CMA 100 pump. Fifteen minute samples were collected into 5 microliters of 0.5M perchloric acid. The probe was calibrated by measuring the recovery of standards of known concentration, 100 nM. Dialysates were immediately assayed by direct injection onto a highly sensitive reverse-phase, isocratic HPLC with an ESA 5100 coulochem detector. Chromatograms were completed within 11 minutes. After an initial period of "injury release", 60 to 90 minutes post probe implantation, stable concentrations of dopamine were measured for a minimum of three […] collections.
The first rat had probes inserted into the right striatum on the third and sixty-fifth days and in the left striatum on the sixty-fifth day post polymer implantation. The second rat had probes inserted into both the right and left striata on the twentieth day.

[5] = both in vitro and in vivo; cited from earlier work
[6] = test system: behavioral deficits; conditions: intracerebral injections; cited from earlier work

Compound: N[C@@H](Cc1ccc(O)c(O)c1)C(=O)O [L-dopa]
- behavioral symptoms of Parkinson's disease [1]: can be reduced
- clinical response [2]: prolonged and stable clinical response

Compound: NCCc1ccc(O)c(O)c1 [dopamine]
- substance released that was dopamine (not oxidation products or other metabolites), HPLC ([3]; High Pressure Liquid Chromatography of release solutions): greater than 99.9%
- release of dopamine ([3]; coated fully except for one hole, 30% loading, up to 65 days in vitro): linear release
- initial release of dopamine (every thirty minutes over several hours) ([3]; coated fully except for one hole, 40% dopamine): release is constant
- release of dopamine ([3]; disc coated on one side, 30%, 40% or 50% dopamine): the release is not linear
- release of dopamine ([3]; disc containing 30%, 40% or 50% dopamine, fully coated, throughout the time period): no release of dopamine
- release of dopamine ([3]; disc not coated, 30%, 40% or 50% dopamine): release occurred rapidly, in a non-linear manner
- release of dopamine ([3]; fully coated except for two holes, 30% loading): Virtual linear release
- persistence of dopamine release into the extracellular fluid of the implanted striatum ([4]; not evident on third day, seen by twentieth day): persists for at least two months
- increase in dopamine levels ([4]; rat, in vivo): > 200 fold
- dopamine concentration in the extracellular fluid (ECF) ([4]; rat, in vivo, 28800 min): 30.5 nM
- dopamine level in the extracellular fluid (ECF) ([4]; rat, in vivo, 93600 min): 36 nM
- level of dopamine in the right striatum relative to normal ([4]; third day): unchanged from normal
- release from EVA over an extended period of time [5]: linear, concentration and time-dependent release

Compound: Nerve Growth Factor
- behavioral deficits [6]: reduces behavioral deficits
